Assay results: publication PMC10058894, “Bioactive C21 Steroidal Glycosides from Euphorbia kansui Promoted HepG2 Cell Apoptosis via the Degradation of ATP1A1 and Inhibited Macrophage Polarization under Co-Cultivation” (Molecules, 2023)

What was measured:
HepG2 cells = test: Fluorescence staining for apoptosis (Hoechst 33342, Annexin V/PI); type: cell-based
Procedure: (§1) HepG2 cells (4 × 10^5 cells/well) were incubated in confocal dishes with DMEM for 24 h and then treated with compounds for 48 h. Then, the cells were treated with 0.1% Triton X-100 for 10 min and washed with PBS five times. Finally, the cells were dyed with anti-ATP1A1 at 4 °C overnight. Nuclear staining with DAPI (1 μg∙mL^−1) was added for 7 min in the dark, and the cells were washed. The stained images were captured under a laser scanning confocal microscope (Nikon A1 AIR MP+, Tokyo, Japan). HepG2 cells (5 × 10^5 cells/well) were incubated in 6-well plates in complete DMEM. Cells were treated with compounds for 24 h. Then, the cells were stained with Annexin V/PI for 30 min at 4 °C in the dark, and apoptosis analysis was carried out by laser scanning confocal microscopy.

Huh-7 cells = test: MTT assay, cell viability of Huh-7 cells; type: cell-based; conditions: Homo sapiens, Huh-7, read-out: Huh-7 IC50
Description: 2. The anti-proliferation of compound 5 on Huh-7 cells
We tested another hepatoma cell line (Huh-7) to validate effect of compound 5. L02 (normal hepatocytes), HepG2 and Hub-7 cells were used to discuss the effect of 5. […]
of 5 on Huh-7 cell was (24.49±[…]) μM (Table S1). The morphology and apoptosis of the cells by reversed microscope and flow cytometry, respectively.
Second, the expression and phosphorylation of ATP1A1 were detected by Western blot analysis in L02, HepG2 and Huh-7 cells. Compared with L02 group, the expression of ATP1A1 was higher in HepG2 and Huh-7 cells, but there was no significant difference in the phosphorylation of ATP1A1 (Figure […]
At last, the effect of 5 on the expression and the phosphorylation of ATP1A1 in Huh-7 cells was […]
the phosphorylation of ATP1A1. The result was consistent with that observed in HepG2 cells (Figure […]
Table S1 Cell viability of Huh-7 cell treated by compound 5

[1] = system: HepG2 and RAW264.7 co-cultivation; test: Cytokine levels by ELISA in co-cultivation; type: cell-based; conditions: 25 μmol∙L−1, 48 h
ROS in HepG2 cells = test: H2DCFDA staining of ROS; type: cell-based
Description: The occurrence of apoptosis is characterized by morphological events and the activation of apoptotic signaling pathways. Herein, we detected the apoptosis events of HepG2 cells by fluorescence staining and Western blotting. […] Apoptosis-related proteins, such as Bax, cleaved caspase 3, and cleaved caspase 8, were increased, and Bcl-2 was decreased (Figure 2B).
Figure 2 Compound 5 promoted the apoptosis of HepG2 cells. (A) Fluorescence image of cell apoptosis in HepG2 cells. The cells were double stained with Annexin V and PI. Early apoptotic cells were stained with Annexin V, and late apoptotic cells were stained with PI. (B) HepG2 cells were treated with Compound 5 (25 μmol∙L^−1) for 24 h, and the protein expression was detected by western blot. (C) Fluorescence image of ROS in HepG2 cells. (D) HepG2 cells were treated with Compound 5 (25 μmol∙L^−1) for 24 h, and autophagy-related protein expression and AKT/mTOR were detected by western blotting. Data are expressed as the mean ± standard deviation. * p < 0.05, ** p < 0.01, *** p < 0.001 vs. the control group.

ATP1A1 = ATP1A1 (Homo sapiens, UniProt P05023); test: ATP1A1 level and location in HepG2 cells (western blot, fluorescence staining, lysosomal colocalization); type: cell-based; parameters: we focused on the regulatory effect of 5 on ATP1A1 in HepG2 cells; endogenous in cells; host or cells: HepG2
Procedure: as §1
Protein samples were prepared using a RIPA lysis buffer. The concentration of the protein was analyzed using a nucleic acid and protein microanalyzer (Molecular Devices, San Jose, CA, USA). SDS–PAGE was performed to separate the proteins, which were then electrotransferred onto a PVDF membrane. The membrane was incubated with antibodies at 4 °C overnight. Next, the membrane was washed and incubated with an HRP-conjugated secondary antibody (Beyotime, BeiJing, China). Finally, signals were detected by the ECL method (Beyotime, BeiJing, China) and analyzed using ImageJ software.

CETSA binding assay = conditions: 50 μmoL−1, western blot
Procedure: Figure 4 Compound 5 promoted the endocytosis and degradation of ATP1A1. (A) HepG2 cells were treated with 12.5 μmol∙L^−1 or 25 μmol∙L^−1 5 for 48 h, and the lysosomal co-localization assay was performed with a confocal laser. (B) Cells exposed to 25 μmol∙L^−1 5 for 12 h or 24 h were detected by fluorescence staining. (C) 5 is depicted in red, and the chains of Na^+, K^+-ATPase α/β/γ are represented by light blue, cyan-blue, and magenta, respectively. The crystallography, atomic coordinates, and structure factors have been deposited in the Protein Data Bank, www.pdb.org (accessed on 1 February 2023) (PDB ID code 3KDP). (D) The CETSA binding assay of ATP1A1 and β-actin in the presence or absence of 5 (50 μmoL^−1) at different temperatures was detected by western blot. The temperature-dependent melting curves and the apparent aggregation temperature were calculated by nonlinear regression. Values represent the mean ± SEM (N = 3 replicates).

RAW264.7 cells = test: Phagocytosis of macrophages by flow cytometry; type: cell-based; conditions: co-cultivation, vs control group
Procedure: RAW264.7 cells (1.5 × 10^5 cells/well) and HepG2 cells (4 × 10^5 cells/well) were incubated in a Tissue Culture Plate Insert (LABSELECT, Hangzhou, China) at 37 °C and 95% humidity. Raw264.7 cells were incubated in 12-well plates, and HepG2 cells were incubated in Transwell chambers. After 24 h, the cells were treated with the compound for 48 h. Then, the chamber was discarded, and RAW264.7 cells were washed twice with PBS and a fresh medium. Next, 1.5 mL/well and 100 μL/well FluoSpheresTM carboxylate (Invitrogen, Carlsbad, CA, USA) were added to the medium for 2 h in the dark. Cells were washed twice with PBS, harvested, and then resuspended in 0.5 mL PBS. Finally, the cells were measured by a FACSCalibur (Becton Dickinson, Franklin Lakes, NJ, USA). Data were analyzed using FlowJo software.

Compound: C[C@H](O)[C@]1(O)CC[C@@]2(O)[C@]1(C)[C@H](OC(=O)/C=C/c1ccccc1)C[C@@H]1[C@@]3(C)CC[C@H](O[C@H]4C[C@H](O)[C@H](O)[C@@H](C)O4)CC3=CC[C@]12O [Compound 5, Cynsaccatol L]
- nuclear changes (Hoechst 33342 staining) (HepG2 cells): significantly induce nuclear changes
- nuclear and cell membrane morphological changes (Annexin V/PI staining) (HepG2 cells; as low as 12.5 μmol∙L−1): significantly induce nuclear and cell membrane morphological changes
- IC50 (Huh-7 cells): 24.5 ± 2.33 µM
- levels of TNF-α and IFN-γ ([1]; vs C0, C1 and C2 groups): significantly upregulate
- levels of IL-6 and IL-10 ([1]; vs C0 group): decreased significantly
- ROS levels (ROS in HepG2 cells): significantly increased
- endocytosis of ATP1A1 protein (lysosomal colocalization assay) (ATP1A1; HepG2, 12.5 or 25 μmol∙L−1 for 48 h, 25 μmol∙L−1 for 12 h or 24 h): induce the endocytosis of the ATP1A1 protein
- expression of ATP1A1 (comparison with inhibitors) (ATP1A1; HepG2, 5 25 μmol∙L−1, digitonin 10, MK 2206 40, FR 180204 200 nmol∙L−1, western blot): decreased
- green fluorescence intensity of ATP1A1 on the cell membrane (ATP1A1; HepG2 cells, fluorescence staining): significantly reduced in a dose-dependent manner
- level of ATP1A1 (ATP1A1; HepG2 cells, western blot): significantly reduced
- denaturation temperature of β-actin (CETSA) (CETSA binding assay): did not change
- phagocytic ability of macrophages (RAW264.7 cells): significantly upregulated
